Here are results for 6 compounds from ChEMBL document CHEMBL5724914, “Linking interpersonal differences in gut microbiota composition and drug biotransformation activity” (2024).

Series [1] can be described thus: The drug is tested on WLS-077 corresponding to human gut metagenome with ENA study accession number: PRJEB37062 and ENA sample accession number: ERS12561750 for biotransformation under anaerobic condition. The drug concentrations were measured over 9 timepoints collected between 0 and 24 hours of incubation by liquid-chromatography-coupled mass spectrometry (LC–MS). The following applies: 2 µM.

The conditions of series [2]: human gut metagenome, 24 h, 2 µM.
For series [3] the following is noted: human gut metagenome, 24 h, 2 µM. This is another data set of the same source.
The nature of series [4]: The drug is tested on Z-001 corresponding to mouse gut metagenome with ENA study accession number: PRJEB37062 and ENA sample accession number: ERS12561801 for biotransformation under anaerobic condition. The drug concentrations were measured over 9 timepoints collected between 0 and 24 hours of incubation by liquid-chromatography-coupled mass spectrometry (LC–MS). The following applies: 2 µM.

The conditions of series [5]: human gut metagenome, 24 h, 2 µM. The source holds these as a separate data set.
Series [6] can be described thus: The drug is tested on WLS-052 corresponding to human gut metagenome with ENA study accession number: PRJEB37062 and ENA sample accession number: ERS12561747 for biotransformation under anaerobic condition. The drug concentrations were measured over 9 timepoints collected between 0 and 24 hours of incubation by liquid-chromatography-coupled mass spectrometry (LC–MS). The following applies: 2 µM.

For series [7] the following is noted: human gut metagenome, 24 h, 2 µM. The source holds these as a separate data set.
For series [8] the following is noted: human gut metagenome, 24 h, 2 µM. This is another data set of the same source.
Series [9] can be described thus: The drug is tested on Z-014 corresponding to rat gut metagenome with ENA study accession number: PRJEB37062 and ENA sample accession number: ERS12561814 for biotransformation under anaerobic condition. The drug concentrations were measured over 9 timepoints collected between 0 and 24 hours of incubation by liquid-chromatography-coupled mass spectrometry (LC–MS). The following applies: 2 µM.

For series [10] the following is noted: human gut metagenome, 24 h, 2 µM. This is another data set of the same source.
For series [11] the following is noted: human gut metagenome, 24 h, 2 µM. The source holds these as a separate data set.
Series [12] can be described thus: The drug is tested on Z-026 corresponding to metagenome with ENA study accession number: PRJEB37062 and ENA sample accession number: ERS12561825 for biotransformation under anaerobic condition. The drug concentrations were measured over 9 timepoints collected between 0 and 24 hours of incubation by liquid-chromatography-coupled mass spectrometry (LC–MS). The note with it: 2 µM.

The nature of series [13]: The drug is tested on Z-007 corresponding to rat gut metagenome with ENA study accession number: PRJEB37062 and ENA sample accession number: ERS12561807 for biotransformation under anaerobic condition. The drug concentrations were measured over 9 timepoints collected between 0 and 24 hours of incubation by liquid-chromatography-coupled mass spectrometry (LC–MS). The following applies: 2 µM.

The conditions of series [14]: human gut metagenome, 24 h, 2 µM. This is another data set of the same source.
Series [15] can be described thus: The drug is tested on WLS-086 corresponding to human gut metagenome with ENA study accession number: PRJEB37062 and ENA sample accession number: ERS12561752 for biotransformation under anaerobic condition. The drug concentrations were measured over 9 timepoints collected between 0 and 24 hours of incubation by liquid-chromatography-coupled mass spectrometry (LC–MS). The note with it: 2 µM.

The conditions of series [16]: human gut metagenome, 24 h, 2 µM. This is another data set of the same source.
The nature of series [17]: The drug is tested on WLS-010 corresponding to human gut metagenome with ENA study accession number: PRJEB37062 and ENA sample accession number: ERS12561743 for biotransformation under anaerobic condition. The drug concentrations were measured over 9 timepoints collected between 0 and 24 hours of incubation by liquid-chromatography-coupled mass spectrometry (LC–MS). The following applies: 2 µM.

For series [18] the following is noted: human gut metagenome, 24 h, 2 µM. The source holds these as a separate data set.
For series [19] the following is noted: human gut metagenome, 24 h, 2 µM. The source holds these as a separate data set.
The nature of series [20]: The drug is tested on WLS-370 corresponding to human gut metagenome with ENA study accession number: PRJEB37062 and ENA sample accession number: ERS12561793 for biotransformation under anaerobic condition. The drug concentrations were measured over 9 timepoints collected between 0 and 24 hours of incubation by liquid-chromatography-coupled mass spectrometry (LC–MS). The following applies: 2 µM.
Also: call rule not given here.

For `CC(N)C12CC3CC(CC(C3)C1)C2` (stereo not given) [RIMANTADINE], the “Bacterial Biotransformation” value in series [1], in series [2], in series [3], in [4], in series [5] and in series [6] was “Compound NOT metabolized” throughout. In addition, the “Bacterial Biotransformation” value in series [7], in series [8], in series [9], in series [10], in [11] and in series [12] was “Compound NOT metabolized” throughout. The “Bacterial Biotransformation” value in [13], in series [14], in series [15], in [16], in series [17] and in series [18] was “Compound NOT metabolized” each time. For the same compound, the “Bacterial Biotransformation” value in series [19] and in [20] was “Compound NOT metabolized” in each case.
Regarding `CCN(C)C(=O)Oc1cccc([C@H](C)N(C)C)c1.O=C(O)C(O)C(O)C(=O)O` [RIVASTIGMINE TARTRATE], the “Bacterial Biotransformation” value is “Compound NOT metabolized” in [1]; “Compound NOT metabolized” in series [2]; “Compound NOT metabolized” in series [3]; “Compound NOT metabolized” in series [4]; “Compound metabolized” in series [5]; “Compound metabolized” in [6]. Further, the “Bacterial Biotransformation” value in series [7], in series [8], in [9], in series [10], in series [11] and in series [12] was “Compound NOT metabolized” each time. Besides, the “Bacterial Biotransformation” value in [13] was “Compound NOT metabolized”; in series [14], “Compound NOT metabolized”; in series [15] it was “Compound NOT metabolized”; in series [16] it was “Compound metabolized”; in [17], “Compound NOT metabolized”; in series [18], “Compound metabolized”. In addition, the “Bacterial Biotransformation” value in series [19] and in series [20] was “Compound NOT metabolized” in each case.
As for `CCCN(CCC)CCc1cccc2c1CC(=O)N2` [ROPINIROLE], the “Bacterial Biotransformation” value in series [1] was “Compound NOT metabolized”; in [2] it was “Compound NOT metabolized”; in [3], “Compound metabolized”; in series [4] it was “Compound NOT metabolized”; in series [5], “Compound NOT metabolized”; in [6], “Compound NOT metabolized”. Besides, the “Bacterial Biotransformation” value in series [7] is recorded as “Compound NOT metabolized”; in series [8] it was “Compound NOT metabolized”; in series [9] it was “Compound NOT metabolized”; in [10] it was “Compound NOT metabolized”; in series [11] it was “Compound metabolized”; in series [12] it was “Compound NOT metabolized”. The “Bacterial Biotransformation” value is “Compound NOT metabolized” in series [13]; “Compound metabolized” in series [14]; “Compound metabolized” in series [15]; “Compound metabolized” in [16]; “Compound NOT metabolized” in series [17]; “Compound NOT metabolized” in series [18]. Besides, the “Bacterial Biotransformation” value in series [19] and in series [20] was “Compound NOT metabolized” throughout.
Turning to `O=C(O)CCC(=O)O.O=C(O[C@H]1CN2CCC1CC2)N1CCc2ccccc2[C@@H]1c1ccccc1` [SOLIFENACIN SUCCINATE], the “Bacterial Biotransformation” value in series [1] is on record as “Compound NOT metabolized”; in [2], “Compound NOT metabolized”; in series [3], “Compound metabolized”; in series [4] it was “Compound NOT metabolized”; in series [5], “Compound NOT metabolized”; in series [6], “Compound NOT metabolized”. Further, the “Bacterial Biotransformation” value in series [7] is “Compound NOT metabolized”; in series [8], “Compound metabolized”; in series [9] it was “Compound NOT metabolized”; in [10], “Compound metabolized”; in series [11], “Compound metabolized”; in series [12] it was “Compound NOT metabolized”. Moreover, the “Bacterial Biotransformation” value is recorded as “Compound NOT metabolized” in series [13]; “Compound metabolized” in series [14]; “Compound metabolized” in series [15]; “Compound metabolized” in series [16]; “Compound metabolized” in [17]; “Compound metabolized” in series [18]. Further, the results for the “Bacterial Biotransformation” value in [19] and in series [20] were “Compound NOT metabolized” and “Compound metabolized”, respectively.
Consider `O=C(CCCN1CCC2(CC1)C(=O)NCN2c1ccccc1)c1ccc(F)cc1` [SPIPERONE], for which the “Bacterial Biotransformation” value in series [1], in series [2], in series [3], in series [4], in [5] and in [6] was “Compound NOT metabolized” in each case. Also, the “Bacterial Biotransformation” value in [7], in [8], in [9], in series [10], in series [11] and in series [12] was “Compound NOT metabolized” throughout. The “Bacterial Biotransformation” value in [13] is “Compound NOT metabolized”; in series [14], “Compound metabolized”; in series [15], “Compound metabolized”; in series [16], “Compound metabolized”; in [17] it was “Compound NOT metabolized”; in series [18] it was “Compound metabolized”. In addition, the “Bacterial Biotransformation” value in series [19] and in series [20] was “Compound NOT metabolized” each time.
With `O=C1C(CC[S+]([O-])c2ccccc2)C(=O)N(c2ccccc2)N1c1ccccc1` (stereo not given) [SULFINPYRAZONE], the “Bacterial Biotransformation” value is reported as “Compound metabolized” in series [1]; “Compound metabolized” in series [2]; “Compound metabolized” in series [3]; “Compound NOT metabolized” in series [4]; “Compound metabolized” in [5]; “Compound metabolized” in series [6]. Further, the “Bacterial Biotransformation” value in series [7] is “Compound metabolized”; in series [8] it was “Compound metabolized”; in series [9] it was “Compound NOT metabolized”; in series [10], “Compound metabolized”; in series [11], “Compound metabolized”; in series [12] it was “Compound metabolized”. Further, the “Bacterial Biotransformation” value in series [13] was “Compound NOT metabolized”; in [14], “Compound metabolized”; in series [15], “Compound metabolized”; in series [16] it was “Compound metabolized”; in series [17], “Compound metabolized”; in series [18] it was “Compound metabolized”. The “Bacterial Biotransformation” value in series [19] is “Compound NOT metabolized”; in series [20] it was “Compound metabolized”.
